US6645976B1 (Eli Lilly and Company, priority 1994, dated 2003)

Biological target: T1, recombinant human secreted phospholipase A2 (Homo sapiens, UniProt P14555)
T1 sequence (P14555 21-144): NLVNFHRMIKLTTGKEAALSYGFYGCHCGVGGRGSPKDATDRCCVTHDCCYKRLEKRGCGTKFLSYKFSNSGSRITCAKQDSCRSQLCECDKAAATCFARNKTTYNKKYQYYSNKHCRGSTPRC
Experiment: sPLA2 Chromogenic Assay (Assay 1)
Assay type: biochemical
Details: diheptanoyl thio-PC substrate, pH 7.5, 40° C. for 30 minutes, absorbance at 405 nanometers

IC50 [nM]	Compound
1100	CCc1c(Cc2ccccc2)c2ccc(OCCCC(=O)O)cn2c1C(=O)C(N)=O [Compound 11, (1-Benzyl-6-(3-carboxypropyloxy)-2-ethylindolizin-3-yl)glyoxylamide]
840	CCc1c(CC(N)=O)c2c(O)cccn2c1Cc1ccccc1-c1ccccc1 [Compound 20x, 2-(2-Ethyl-8-hydroxy-3-(o-phenylbenzyl)-indolizin-1-yl)acetamide]
140	CCc1c(CC(N)=O)c2c(OCC(=O)OCc3ccccc3)cccn2c1Cc1ccccc1-c1ccccc1 [Compound 21x, 2-(8-(Benzyloxycarbonylmethyloxy)-2-ethyl-3-(o-phenylbenzyl)indolizin-1-yl)acetamide]
14	CCc1c(CC(N)=O)c2c(OCC(=O)O)cccn2c1Cc1ccccc1-c1ccccc1 [Compound 22x, 2-(8-(Carboxymethyloxy)-2-ethyl-3-(o-phenylbenzyl)indolizin-1-yl)acetamide]
15	CCc1c(CC(N)=O)c2c(OCC(=O)O)cccn2c1Cc1cccc(Cl)c1 [Compound 22y, 2-(8-(Carboxymethyloxy)-3-(m-chlorobenzyl)-2-ethylindolizin-1-yl)acetamide]
8	CCc1c(C(=O)C(N)=O)c2c(OCC(=O)O)cccn2c1Cc1ccccc1 [Compound 40a, (3-Benzyl-8-(carboxymethyloxy)-2-ethylindolizin-1-yl)glyoxylamide]
> 50000	CCc1c(C(=O)C(=O)NC)c2c(OCC(=O)O)cccn2c1Cc1ccccc1 [Compound 40b, (3-Benzyl-8-(carboxymethyloxy)-2-ethylindolizin-1-yl)glyoxyl-N-methylamide, reference compound]
> 50000	CCc1c(C(=O)C(=O)N(C)C)c2c(OCC(=O)O)cccn2c1Cc1ccccc1 [Compound 40c, (3-Benzyl-8-(carboxymethyloxy)-2-ethylindolizin-1-yl)glyoxyl-N,N-dimethylamide, reference compound]
8	Cc1c(C(=O)C(N)=O)c2c(OCC(=O)O)cccn2c1Cc1ccccc1 [Compound 40g, (3-Benzyl-8-(carboxymethyloxy)-2-methylindolizin-1-yl)glyoxylamide]
220	CCc1c(C(=O)C(N)=O)c2c(OCC(=O)OC)cccn2c1Cc1cccs1 [Compound 51k]
21	CCc1c(C(=O)C(N)=O)c2c(OCC(=O)O)cccn2c1CC1CCCCC1 [Compound 52b, 2-(8-Carboxymethyloxy-3-cyclohexylmethyl-2-ethylindolizin-1-yl)glyoxylamide]
23	CCc1c(C(=O)C(N)=O)c2c(OCC(=O)O)cccn2c1CC1CCCCCC1 [Compound 52d, 2-(8-Carboxymethyloxy-3-cycloheptylmethyl-2-ethylindolizin-1-yl)glyoxylamide]
62	CCCCCc1c(CC)c(C(=O)C(N)=O)c2c(OCC(=O)O)cccn12 [Compound 52e, 2-(8-Carboxymethyloxy-2-ethyl-3-pentylindolizin-1-yl)glyoxylamide]
51	CCc1c(C(=O)C(N)=O)c2c(OCC(=O)O)cccn2c1CCc1ccccc1 [Compound 52i, 2-(8-(Carboxymethyoxy)-2-ethyl-3-(2-phenylethyl)indolizin-1-yl)glyoxylamide]
6	CCc1c(C(=O)C(N)=O)c2c(OCC(=O)O)cccn2c1Cc1ccccc1Cc1ccccc1 [Compound 52j, 2-(8-(Carboxymethyloxy)-3-o-benzylbenzyl-2-ethylindolizin-1-yl)glyoxylamide]
11	CCc1c(C(=O)C(N)=O)c2c(OCC(=O)O)cccn2c1Cc1cccs1 [Compound 52k, 2-(8-(Carboxymethyloxy)-2-ethyl-3-(thiophen-2-ylmethyl)indolizin-1-yl)glyoxylamide]
21	CCc1c(C(=O)C(N)=O)c2c(OCC(=O)O)cccn2c1Cc1cccc(OC)c1 [Compound 52m, 2-(2-Ethyl-8-(carboxymethyloxy)-3-(m-methoxybenzyl)indolizine-1-yl)glyoxylamide]
36	CCc1c(C(=O)C(N)=O)c2c(OCC(=O)O)cccn2c1Cc1ccccc1[N+](=O)[O-] [Compound 52n, 2-(2-Ethyl-8-(carboxymethyloxy)-3-(o-nitrobenzyl)indolizine-1-yl)glyoxylamide]
25	CCCCCC1CCC(Cc2c(CC)c(C(=O)C(N)=O)c3c(OCC(=O)O)cccn23)CC1 (centres unmarked) [Compound 52o, 2-(8-(Carboxymethyloxy)-2-ethyl-3-(4-n-pentylcyclohexylmethyl)indolizin-1-yl)glyoxylamide]

IC50 [nM]	Compound
46	NC(=O)C(=O)c1c(C2CC2)c(Cc2ccccc2)n2cccc(OCC(=O)O)c12 [Compound 52r, 2-(3-Benzyl-8-carboxymethyloxy-2-cyclopropylindolizin-1-yl)-glyoxylamide]
11	CCCCc1ccc(Cc2c(CC)c(C(=O)C(N)=O)c3c(OCC(=O)O)cccn23)cc1 [Compound 52s, 2-(3-(p-n-Butylbenzyl)-8-(carboxymethyloxy)-2-ethylindolizin-1-yl)glyoxylamide]
29	NC(=O)C(=O)c1c(C2CC2)c(CC2CCCC2)n2cccc(OCC(=O)O)c12 [Compound 52v, 2-(8-(Carboxymethyloxy)-3-cyclopentylmethyl-2-cyclopropylindolizin-1-yl)glyoxylamide]
14	Cc1c(C(=O)C(N)=O)c2c(OCC(=O)O)cccn2c1CC1CCCC1 [Compound 52w, 2-(8-(Carboxymethyloxy)-3-cyclopentylmethyl-2-methylindolizin-1-yl)glyoxylamide]
80	CCc1c(C(=O)C(N)=O)c2c(OCC(=O)OC)cccn2c1Cc1cccc(-c2ccccc2)c1 [Compound 57g, 2-(8-Carbomethoxymethyloxy-2-ethyl-3-(m-phenylbenzyl)indlolin-1-yl)glyoxylamide]
790	COC(=O)COc1cccn2c(Cc3cccc4ccccc34)c(C3CC3)c(C(=O)C(N)=O)c12 [Compound 57j, 2-(8-Carbomethoxymethyloxy-2-cyclopropyl-3-(1-naphthylmethyl)indlolin-1-yl)glyoxylamide]
8	Cc1c(C(=O)C(N)=O)c2c(OCC(=O)O)cccn2c1Cc1ccccc1-c1ccccc1 [Compound 58a, 2-(3-(Biphenyl-2-ylmethyl)-8-carboxymethoxyl-2-methylindolizin-1-yl)glyoxylamide]
35	CC(C)c1c(C(=O)C(N)=O)c2c(OCC(=O)O)cccn2c1Cc1ccccc1-c1ccccc1 [Compound 58c]
11	CCc1c(C(=O)C(N)=O)c2c(OCC(=O)OC(C)OC(=O)OC)cccn2c1Cc1ccccc1-c1ccccc1 (centres unmarked) [Compound 59b, 2-(3-Biphenyl-2-ylmethyl-8-(1-methoxycarbonyloxyethoxycarbonylmethoxy)-2-ethylindolizin-1-yl)glyoxylamide]
46	CCc1c(C(=O)C(N)=O)c2c(OCC(=O)OC(C)OC(=O)OC(C)C)cccn2c1Cc1ccccc1-c1ccccc1 (centres unmarked) [Compound 59c, 2-(3-Biphenyl-2-ylmethyl-2-ethyl-8-(1-isopropyloxycarbonyloxyethoxycarbonylmethoxy)indolizin-1-yl)glyoxylamide]
61	CCc1c(C(=O)C(N)=O)c2c(OCC(=O)OCCC(=O)OC3(C)CCCC3)cccn2c1Cc1ccccc1-c1ccccc1 [Compound 59h, 2-(3-Biphenyl-2-ylmethyl-2-ethyl-8-(1-methylcyclopentyloxycarbonylethyloxycarbonyl-methyloxy)-indolizin-1-yl)glyoxylamide]
200	CCc1c(C(=O)C(N)=O)c2cc(OCCCC(=O)O)ccn2c1Cc1ccccc1 [Compound 67a, 2-(3-Benzyl-7-(3-carboxylpropyloxy)-2-ethylindolizin-1-yl)glyoxylamide]
140	CCc1c(C(=O)C(N)=O)c2cc(OCCCC(=O)O)ccn2c1Cc1ccccc1-c1ccccc1 [Compound 67c, 2-(7-(3-Carboxypropyloxy)-2-ethyl-3-(o-phenylbenzyl)indolizin-1-yl)glyoxylamide]
44	CCc1c(C(=O)C(N)=O)c2c(OCCC(=O)O)cccn2c1Cc1ccccc1-c1ccccc1 [Compound 70a, 2-(3-(Biphenyl-2-yl-methyl)-8-(carboxyethyloxy)-2-ethylindolizine-1-yl)glyoxylamide]
240	CCc1c(C(=O)C(N)=O)c2cc(OCCC(=O)O)ccn2c1Cc1ccccc1-c1ccccc1 [Compound 70b]
600	CCOC(=O)CCCOc1ccn2c(Cc3ccccc3-c3ccccc3)c(CC)c(CC(N)=O)c2c1 [Compound 71a, 2-(7-(3-Carbethoxypropyloxy)-2-ethyl-3-(o-phenylbenzyl)indolizin-1-yl)acetamide]
120	COC(=O)COc1cccn2c(Cc3ccccc3-c3ccccc3)c(SC)c(C(=O)C(N)=O)c12 [Compound 82, 2-(8-(Carbomethoxymethyloxy)-2-methylthio-3-(o-phenylbenzyl)indolizin-1-yl)glyoxylamide]
16	CSc1c(C(=O)C(N)=O)c2c(OCC(=O)O)cccn2c1Cc1ccccc1-c1ccccc1 [Compound 83, 2-(8-(Carboxymethyloxy)-2-methylthio-3-(o-phenylbenzyl)indolizin-lyl)-glyoxylamide]

Compound	IC50 [nM]
2-(3-(Biphenyl-2-yl-methyl)-8-(carboxymethyloxy)-2-ethylindolizine-1-yl)glyoxylamide diglycolate [Compound 59j]	53
CCc1c(C(=O)C(N)=O)c2c(OCC(=O)OC(C)C(=O)OC3CCCCC3)cccn2c1Cc1ccccc1-c1ccccc1 (centres unmarked) [Compound 59e]	55
CCc1c(C(=O)C(N)=O)c2c(OCc3nnnn3C(c3ccccc3)(c3ccccc3)c3ccccc3)cccn2c1Cc1ccccc1-c1ccccc1 [Compound 59l, 2-(3-(Biphenyl-2-yl-methyl)-2-ethyl-8-(1-tritytretrazol(-5-yl)methyloxy)indolizine-1-yl)glyoxylamide]	110

Test system: not given
Experiment: not given
Details: not given

melting point	Compound
84 to 94 °C (dec.)	CCc1c(C(=O)C(N)=O)c2cc(OCCCCCC(=O)O)ccn2c1Cc1ccccc1-c1ccccc1
